One test concerns the target T1, MNK1 (Homo sapiens, UniProt Q9BUB5).
T1 construct: purchased Life Technologies or Carna Biosciences PV6023 or 02-145; host or cells: baculovirus infected insect cells
The test can be described thus: MNK inhibition assay (Z-Lyte kinase assay, Ser/Thr 7 peptide). The class given is biochemical. To be noted: for IC50: recombinant GST-MNK1, 3 hours at 31° C.; for inhibition at 1 µM: read-out: Inhibition of MNK1 activity at indicated concentration. A digest of the protocol: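 Recombinant GST-MNK1 from baculovirus-infected insect cells, Z-Lyte Ser/Thr 7 peptide, enzyme set for ~30% phosphorylation in buffer-only wells; 3 hours at 31° C. Compounds at 50–10000 nM (potent ones down to 0.5 nM), at least duplicate. IC50 from % substrate phosphorylation versus buffer-only wells, fluorescence read-out.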

The test system of test [1] is human pancreatic cancer cell line MiaPaCa2 (ATCC CRL-1420). The test can be described thus: Cell growth assay (CellTiterGlo, 72 hours). The test is classed as cell-based. To be noted: for IC50: MIA PaCa-2, MiaPaCa2 cells, 72 hours, read-out: IC50 MiaPaCa; for inhibition at 100 µM: MIA PaCa-2, at 100 μM, read-out: Inhibition of MiaPaCa growth at indicated concentration. A digest of the protocol: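 MiaPaCa2 cells (10^3/well) seeded in supplemented DMEM overnight, then exposed in quadruplicate to compound at 100 down to 0.1 μM for 72 h at 37° C. Growth read by CellTiterGlo luminescence, medium-only background subtracted, normalised to untreated cells; IC50 = concentration reducing growth to 50%.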

T1 sequence (Q9BUB5 whole entry): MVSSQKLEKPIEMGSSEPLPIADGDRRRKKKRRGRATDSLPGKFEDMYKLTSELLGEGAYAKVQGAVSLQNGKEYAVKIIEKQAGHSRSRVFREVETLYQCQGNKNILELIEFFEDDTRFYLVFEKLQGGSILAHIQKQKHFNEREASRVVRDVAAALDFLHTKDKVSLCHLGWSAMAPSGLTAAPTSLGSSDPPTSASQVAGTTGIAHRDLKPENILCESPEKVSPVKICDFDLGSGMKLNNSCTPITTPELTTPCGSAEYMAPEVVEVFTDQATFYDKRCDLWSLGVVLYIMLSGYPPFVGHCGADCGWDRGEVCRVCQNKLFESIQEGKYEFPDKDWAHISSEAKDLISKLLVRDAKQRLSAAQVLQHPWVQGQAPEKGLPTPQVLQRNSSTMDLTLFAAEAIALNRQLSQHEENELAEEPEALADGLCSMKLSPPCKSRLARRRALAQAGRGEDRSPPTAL

On to `NC1CCN(Cc2ccc3cncc(-c4nc5ccccc5s4)c3c2)CC1` [Example 227, 1-[[4-(1,3-Benzothiazol-2-yl)-6-isoquinolyl]methyl]piperidin-4-amine], for which the IC50 at MNK1 stood at 1020 nM; in test [1] it was 4430 nM.

On to `COc1ccc(-c2cncc3ccc(CN4CCC(N)CC4)cc23)cc1OC` [Example 202], for which the IC50 at MNK1 is 1270 nM; in test [1], 19400 nM.

For `NCCCOCc1ccc2cncc(-c3cc4ccccc4o3)c2c1` [Example 105, 3-[[4-(Benzofuran-2-yl)-6-isoquinolyl]methoxy]propan-1-amine], the half-maximal inhibitory concentration (IC50) is 89 nM at MNK1 and 12800 nM in test [1].

Regarding `c1ccc2oc(C3CNNc4ccc(CNc5ccncc5)cc43)cc2c1` (stereo not drawn) [Example 277, N-[[4-(Benzofuran-2-yl)-1,2,3,4-tetrahydrocinnolin-6-yl]methyl]pyridin-4-amine], the half-inhibitory concentration (IC50) at MNK1 is 131 nM; in test [1], 5760 nM.

As for `COc1cc(CN2CCC(N)CC2)cc2c(-c3ccco3)cnc(N)c12` [Example 297], the half-inhibitory concentration (IC50) on MNK1 came to 290 nM; in test [1], 1210 nM.

Consider `Nc1cc[n+](Cc2ccc3cncc(-c4ccc(Cl)cc4)c3c2)cc1` [Example 123], for which the IC50 amounted to 132 nM at MNK1 and 7920 nM in test [1].

As for `N[C@H]1CC[C@H](Oc2ccc3cncc(-c4cc5ccccc5o4)c3c2)CC1` [Example 79, 4-[[4-(Benzofuran-2-yl)-6-isoquinolyl]oxy]cyclohexanamine], the IC50 worked out at 401 nM on MNK1 and 4720 nM in test [1].

In the case of `c1cncc(Nc2ccc3cncc(-c4cc5ccccc5o4)c3c2)c1` [Example 134], the IC50 at MNK1 came out at 4680 nM. Moreover, in test [1], the inhibition at 100 µM was 45%.

In the case of `N[C@H]1CC[C@H](Nc2cc3c(-c4cc5ccccc5o4)cncc3cc2Cl)CC1` [Example 140, N4-[4-(Benzofuran-2-yl)-7-chloro-6-isoquinolyl]cyclohexane-1,4-diamine], the IC50 at MNK1 turned out to be 10 nM; in test [1], 1870 nM.

On to `Nc1ncc(-c2cc(Cl)cc(Cl)c2)c2cc(CN3CCC(N)CC3)ccc12` [Example 218], for which the IC50 came to 5720 nM at MNK1 and 2470 nM in test [1].

With `COc1cc(N[C@H]2CC[C@H](N)CC2)cc2c(-c3ccccc3)cncc12` [Example 315], the IC50 came out at 87 nM at MNK1 and 2550 nM in test [1].

`Cn1nccc1Nc1ccc2cncc(-c3cc4ccccc4o3)c2c1` [Example 98, 4-(Benzofuran-2-yl)-N-(2-methylpyrazol-3-yl)isoquinolin-6-amine]: at MNK1, the inhibition at 1 µM was 40%. Further, in test [1], the 50% inhibitory concentration (IC50) was 9880 nM.

For the molecule `NC(=O)c1cccc(-c2cncc3ccc(CN4CCC(N)CC4)cc23)c1` [Example 21], at MNK1, the inhibition at 1 µM was 49%. Moreover, in test [1], the inhibition at 100 µM came to 64%.

Regarding `NC1CCN(Cc2cc([N+](=O)[O-])c3cncc(-c4cc5ccccc5o4)c3c2)CC1` [Example 252, 1-[[4-(Benzofuran-2-yl)-8-nitro-6-isoquinolyl]methyl]piperidin-4-amine], the IC50 at MNK1 stood at 308 nM; in test [1] it was 20500 nM.

Take `Nc1ncc(-c2ccc(Cl)c(Cl)c2)c2cc(CN3CCC(N)CC3)ccc12` [Example 217]: the IC50 is 3010 nM on MNK1 and 3060 nM in test [1].

On to `Oc1ccc(-c2cncc3ccc(CNC4CCNC4)cc23)cc1` (stereo not drawn) [Example 41], for which the IC50 on MNK1 is 254 nM. Further, the inhibition at 100 µM in test [1] amounted to 67%.

Take `NC1CCN(Cc2ccc3cncc(-c4cccc(Cl)c4)c3c2)CC1` [Example 10]: the half-inhibitory concentration (IC50) on MNK1 came to 325 nM; in test [1], 11700 nM.

`N[C@H]1CC[C@H](Nc2ccc3cncc(-c4ccccc4)c3n2)CC1` [Example 303, trans-N4-(8-phenyl-1,6-naphthyridin-2-yl)cyclohexane-1,4-diamine]: the IC50 at MNK1 stood at 31 nM; in test [1], 9520 nM.

Turning to `c1ccc2oc(-c3cncc4ccc(NCC5CCNCC5)cc34)cc2c1` [Example 213], the IC50 turned out to be 113 nM on MNK1 and 3480 nM in test [1].

For the molecule `Nc1ncc2ccc(CNc3ccncc3)cc2c1-c1cc2ccccc2o1` [Example 165, 4-(Benzofuran-2-yl)-6-[(4-pyridylamino)methyl]isoquinolin-3-amine], the IC50 on MNK1 turned out to be 6 nM; in test [1] it was 5700 nM.

In the case of `NC1CCN(Cc2ccc3cncc(-c4ccsc4)c3c2)CC1` [Example 180], the IC50 on MNK1 was determined as 177 nM; in test [1] it was 12100 nM.

In the case of `NC1CCN(Cc2ccc3cncc(-c4cc5ccccc5o4)c3n2)CC1` [Example 300, 1-[[8-(Benzofuran-2-yl)-1,6-naphthyridin-2-yl]methyl]piperidin-4-amine], the half-maximal inhibitory concentration (IC50) worked out at 89 nM on MNK1 and 8360 nM in test [1].

As for `NC1CCN(Cc2ccc3cncc(-c4ccc5cccnc5c4)c3c2)CC1` [Example 196], the IC50 on MNK1 amounted to 331 nM; in test [1] it was 20400 nM.

As for `CO[C@@H]1CN(Cc2ccc3cncc(-c4cc5ccccc5o4)c3c2)CC[C@H]1N` [Example 271], the IC50 on MNK1 is 288 nM; in test [1], 4290 nM.

Turning to `COc1cc2cncc(-c3cc4ccccc4o3)c2cc1N[C@H]1CC[C@H](N)CC1` [Example 141, N4-[4-(Benzofuran-2-yl)-7-methoxy-6-isoquinolyl]cyclohexane-1,4-diamine], the IC50 on MNK1 turned out to be 187 nM; in test [1] it was 2260 nM.

With `Nc1ncc2ccc(CN3CCC(N)CC3)cc2c1-c1ccc(O)cc1` [Example 163], the IC50 was 142 nM on MNK1 and 13800 nM in test [1].

Regarding `c1ccc2oc(-c3cncc4ccc(CN5CCNCC5)cc34)cc2c1` [Example 224, 4-(Benzofuran-2-yl)-6-(piperazin-1-ylmethyl)isoquinoline], the IC50 on MNK1 was found to be 222 nM; in test [1], 11600 nM.

As for `NC1CCN(Cc2ccc3cncc(-c4cccc(CO)c4)c3c2)CC1` [Example 182], the IC50 on MNK1 turned out to be 1180 nM; in test [1] it was 38000 nM.

With `COc1cc(CN2CCC(N)CC2)cc2c(-c3ccccc3)cnc(N)c12` [Example 259], the results for the IC50 (on MNK1; in test [1]) were 66 nM and 1300 nM, respectively.

Consider `Nc1ncc(-c2ccccc2)c2cc(O[C@H]3CC[C@H](N)CC3)cc(Cl)c12` [Example 319], for which the IC50 came out at 38 nM at MNK1 and 2850 nM in test [1].

For the molecule `Nc1ncc2ccc(CN3CCC(N)CC3)cc2c1-c1ccccc1` [Example 162, 6-[(4-Amino-1-piperidyl)methyl]-4-phenyl-isoquinolin-3-amine], on MNK1, the inhibition at 1 µM amounted to 54%. Also, the IC50 in test [1] amounted to 9880 nM.

Regarding `Nc1ncc(-c2cc3ccccc3o2)c2cc(CNc3ccncc3)ccc12` [Example 151, 4-(Benzofuran-2-yl)-6-[(4-pyridylamino)methyl]isoquinolin-1-amine], the IC50 on MNK1 was 11 nM; in test [1], 2510 nM.

Turning to `NC1CCN(C(=O)c2ccc3cncc(-c4ccc(O)cc4)c3c2)CC1` [Example 28, (4-Amino-1-piperidyl)-[4-(4-hydroxyphenyl)-6-isoquinolyl]methanone], the IC50 was found to be 353 nM at MNK1 and 47600 nM in test [1].

As for `c1ccc2oc(-c3cncc4ccc(CNc5ccnc6[nH]ccc56)cc34)cc2c1` [Example 272, N-[[4-(Benzofuran-2-yl)-6-isoquinolyl]methyl]-1H-pyrrolo[2,3-b]pyridin-4-amine], the IC50 is 5.4 nM at MNK1 and 7250 nM in test [1].

For the molecule `c1ccc2oc(-c3cncc4ccc(Nc5ccncc5)cc34)cc2c1` [Example 139, 4-(Benzofuran-2-yl)-N-(4-pyridyl)isoquinolin-6-amine], the IC50 on MNK1 came out at 903 nM; in test [1], 10400 nM.

On to `COc1c(CN2CCC(N)CC2)cc2c(-c3cc4ccccc4o3)cncc2c1OC` [Example 279, 1-[[4-(Benzofuran-2-yl)-7,8-dimethoxy-6-isoquinolyl]methyl]piperidin-4-amine], for which the IC50 at MNK1 was 116 nM; in test [1], 5630 nM.

In the case of `NC1CCN(Cc2ccc3cncc(-c4ccc(Cl)s4)c3c2)CC1` [Example 171], the IC50 stood at 189 nM at MNK1 and 11200 nM in test [1].

`COC(=O)c1ccc(-c2cncc3ccc(CN4CCC(N)CC4)cc23)cc1` [Example 11]: on MNK1, the inhibition at 1 µM is 33%. Also, the IC50 in test [1] came to 10100 nM.

For the molecule `NCCNCc1ccc2cncc(-c3ccc(O)cc3)c2c1` [Example 24], the IC50 was determined as 926 nM at MNK1 and 45500 nM in test [1].

Regarding `NC1CCN(Cc2ccc3cncc(-c4cccs4)c3c2)CC1` [Example 178], the values for the IC50 (at MNK1; in test [1]) were 154 nM and 4980 nM, respectively.

In the case of `O=C1CN(Cc2ccc3cncc(-c4ccc(O)cc4)c3c2)CCN1` [Example 22, 4-[[4-(4-Hydroxyphenyl)-6-isoquinolyl]methyl]piperazin-2-one], the half-inhibitory concentration (IC50) on MNK1 amounted to 662 nM. For the same molecule, the inhibition at 100 µM in test [1] was determined as 69%.

For `CC(=O)c1cccc(-c2cncc3ccc(CN4CCC(N)CC4)cc23)c1` [Example 186], the IC50 was 1240 nM on MNK1 and 24000 nM in test [1].

Consider `NC1CCN(Cc2ccc3cncc(-c4ccc(Cl)cc4Cl)c3c2)CC1` [Example 197], for which the IC50 at MNK1 came out at 1390 nM; in test [1] it was 9860 nM.

As for `N[C@H]1CC[C@H](Nc2ccc3c(=O)[nH]cc(-c4cc5ccccc5o4)c3c2)CC1` [Example 87, 6-[(4-Aminocyclohexyl)amino]-4-(benzofuran-2-yl)-2H-isoquinolin-1-one], the IC50 was found to be 1980 nM at MNK1 and 4470 nM in test [1].

As to `NC1CCN(Cc2ccc3cncc(-c4ccc5ccncc5c4)c3c2)CC1` [Example 194], the IC50 was 797 nM at MNK1 and 16300 nM in test [1].

(Values after patent US20200031811A1, “SUBSTITUTED MONO- AND POLYAZANAPHTHALENE DERIVATIVES AND THEIR USE” (Basilea Pharmaceutica International AG, priority 2015, published 2020).)
